Data set [1] addresses T1, P-glycoprotein (wild-type mouse Pgp, MDR3) (Mus musculus, UniProt P21447). The experiment in a line: in vitro. The note with it: mouse, pH 7.4. As to the method:
Overexpression of wild-type mouse Pgp (MDR3) was achieved by using genetically engineered strains of Pichia pastoris with a 6X histidine tag. The cells were cultured in glycerol media, and methanol was used to induce the overexpression of Pgp at the Bioexpression and Fermentation Facility (BFF), University of Georgia, Athens, GA, USA. A repeated cycle of freezing using liquid nitrogen, blending, and thawing was used to lyse the Pgp-expressing P. pastoris cells. The protein was purified using affinity chromatography with nickel-nitrilotriacetic acid (Ni-NTA) resin (Thermo Fisher Scientific, Waltham, MA, USA). DDM was used to solubilize the protein, and the solution was concentrated using Amicon Ultra-15 100 kDa cut-off filters (EMD Millipore, Billerica, MA, USA). […] The purified DDM-solubilized Pgp was aliquoted and stored at −80 °C for future analysis.
Pgp was reconstituted into liposomes as previously described. Briefly, liposomes comprising 80% (w/v) Avanti Escherichia coli total lipid extract and 20% (w/v) cholesterol were dissolved in chloroform to achieve a final concentration of 10 mg mL^−1, and the volume was adjusted to 10 mL. […] The solution was subjected to ten cycles of freeze–thaw using liquid nitrogen and a water bath (67 °C), resulting in the formation of liposomes with varying sizes, and extruded eleven times in a LIPEX extruder (Northern Lipids, Burnaby, BC, Canada) to produce identical-sized liposomes, using a 400 nm cut-off filter.
(§1) Approximately 40 µL of DDM-solubilized Pgp was dialyzed for two hours against HEPES buffer (20 mM HEPES, 100 mM NaCl, 5 mM MgCl2, 2 mM DTT, pH 7.4) to remove any remnants of the detergent, DDM. The dialyzed protein was mixed with 4 mg mL^−1 of the extruded liposomes and incubated on ice for at least one hour to allow Pgp to integrate into the liposomes. To remove any additional detergent and further facilitate Pgp integration into the liposome, the solution was dialyzed for a second time for two hours in HEPES buffer to form proteoliposomes, and the concentration of Pgp reconstituted in liposomes was determined using the Bio-Rad DC Protein assay. Finally, the solution was aliquoted and stored at −80 °C for future use.
The Chifflet method is a colorimetric method that measures the amount of free inorganic phosphate (Pi) through the formation of ammonium molybdate and Pi complex, which produces a strong absorbance at 850 nm. The absorbance was measured on a 96-well plate using a CLARIOstar microplate reader (BMG Labtech, Ortenberg, Germany). […] The final concentrations of the proteoliposome and ATP were maintained at 50 nM and 3.2 mM, respectively. Orthovanadate was used as a control and run in parallel to the samples. Finally, the kinetic curves for ATPase activity were fit to a modified Michaelis-Menten equation (Equation (1)). Igor 6.2 Pro software (Wavemetrics, Tigard, OR, USA) was used for data analysis.(1) V=VmaxS/Km+S+Vbasal where V = Rate of ATP hydrolysis; Vmax = Maximum velocity of ATP hydrolysis; [S] = Substrate concentration; Km = Michaelis–Menten constant; and Vbasal = basal ATPase activity.

The test system of the next data set is Pgp. To be noted: MDCK cell lines overexpressing Pgp; cited from earlier work.
For data set [2], the target named is T1, P-glycoprotein (wild-type mouse Pgp, MDR3). Briefly: in vitro. To be noted: mouse, pH 7.4. The procedure:
Overexpression of wild-type mouse Pgp (MDR3) was achieved by using genetically engineered strains of Pichia pastoris with a 6X histidine tag. The cells were cultured in glycerol media, and methanol was used to induce the overexpression of Pgp at the Bioexpression and Fermentation Facility (BFF), University of Georgia, Athens, GA, USA. A repeated cycle of freezing using liquid nitrogen, blending, and thawing was used to lyse the Pgp-expressing P. pastoris cells. The protein was purified using affinity chromatography with nickel-nitrilotriacetic acid (Ni-NTA) resin (Thermo Fisher Scientific, Waltham, MA, USA). DDM was used to solubilize the protein, and the solution was concentrated using Amicon Ultra-15 100 kDa cut-off filters (EMD Millipore, Billerica, MA, USA). The concentration of purified protein was measured at 280 nm using a calculated extinction coefficient of 1.28 per mg mL^−1 on a Nanodrop (DeNovix, Wilmington, DE, USA). […] The purified DDM-solubilized Pgp was aliquoted and stored at −80 °C for future analysis.
as §1
The intrinsic tryptophan residues in the protein can be selectively excited and emitted at 295 nm and 330 nm wavelengths, respectively. The binding of the drug to the protein can alter the spatial arrangement encountered by the tryptophan residue(s) and thereby regulate the fluorescence intensity of the protein [52]. […] Proteoliposomes diluted to 1 µM in Chifflet buffer containing 2 mM DTT were titrated against varying concentrations of drugs. The intrinsic protein fluorescence was measured at 330 nm upon excitation at 295 nm using an Olis DM 45 spectrophotometer (Olis Corporation, Bogart, GA, USA). To nullify the effect of Rayleigh bands on the observed spectra, a 10 nm band-pass filter was inserted on the excitation and emission paths of the spectrophotometer. The drug-induced quenching of intrinsic Pgp fluorescence was corrected (Fcorrected) for factors such as dilution, background fluorescence, and inner filter effects using the equation mentioned below (Equation (2)).(2) Fcorrected=F−B10^εexbex+εembemQ/2 where Fcorrected = Drug-induced quenching of intrinsic Pgp fluorescence; F = Emitted intrinsic Pgp fluorescence at 330 nm; [Q] = Concentration of drug; εex and εem = Excitation and emission extinction coefficients, respectively; bex and bem = Path lengths of excitation (0.4 mm) and emission (10 mm) wavelengths, respectively; and B = Background fluorescence measured from drug and solvent.
The resulting quenching curves were fit using a modified Stern-Volmer equation (Equation (3)), as follows:(3) Fcorrected=FOcorrected/1+KsvQ+Funquenched where Fcorrected = The corrected fluorescence; F0(corrected) = Fluorescence recorded in the absence of drug; [Q] = Concentration of drug; Ksv = Stern–Volmer constant; and F(unquenched) = unquenched fluorescence.
The source holds these as a separate data set.

The subject of data set [3] is Pgp mutants F336A and I340A. To be noted: cited from earlier work.

Consider three molecules from paper PMC12386283, “Elucidating the Complex Structural and Molecular Mechanisms Driving P-Glycoprotein-Mediated Transport of Cardiac Glycosides” (International Journal of Molecular Sciences, 2025).

In general, Km refers to the concentration of substrate that gives half-maximal velocity. For orientation: Kd means the constant that tells how readily two partners part at equilibrium. A higher Kd goes with weaker binding.

T1 sequence (P21447 whole entry): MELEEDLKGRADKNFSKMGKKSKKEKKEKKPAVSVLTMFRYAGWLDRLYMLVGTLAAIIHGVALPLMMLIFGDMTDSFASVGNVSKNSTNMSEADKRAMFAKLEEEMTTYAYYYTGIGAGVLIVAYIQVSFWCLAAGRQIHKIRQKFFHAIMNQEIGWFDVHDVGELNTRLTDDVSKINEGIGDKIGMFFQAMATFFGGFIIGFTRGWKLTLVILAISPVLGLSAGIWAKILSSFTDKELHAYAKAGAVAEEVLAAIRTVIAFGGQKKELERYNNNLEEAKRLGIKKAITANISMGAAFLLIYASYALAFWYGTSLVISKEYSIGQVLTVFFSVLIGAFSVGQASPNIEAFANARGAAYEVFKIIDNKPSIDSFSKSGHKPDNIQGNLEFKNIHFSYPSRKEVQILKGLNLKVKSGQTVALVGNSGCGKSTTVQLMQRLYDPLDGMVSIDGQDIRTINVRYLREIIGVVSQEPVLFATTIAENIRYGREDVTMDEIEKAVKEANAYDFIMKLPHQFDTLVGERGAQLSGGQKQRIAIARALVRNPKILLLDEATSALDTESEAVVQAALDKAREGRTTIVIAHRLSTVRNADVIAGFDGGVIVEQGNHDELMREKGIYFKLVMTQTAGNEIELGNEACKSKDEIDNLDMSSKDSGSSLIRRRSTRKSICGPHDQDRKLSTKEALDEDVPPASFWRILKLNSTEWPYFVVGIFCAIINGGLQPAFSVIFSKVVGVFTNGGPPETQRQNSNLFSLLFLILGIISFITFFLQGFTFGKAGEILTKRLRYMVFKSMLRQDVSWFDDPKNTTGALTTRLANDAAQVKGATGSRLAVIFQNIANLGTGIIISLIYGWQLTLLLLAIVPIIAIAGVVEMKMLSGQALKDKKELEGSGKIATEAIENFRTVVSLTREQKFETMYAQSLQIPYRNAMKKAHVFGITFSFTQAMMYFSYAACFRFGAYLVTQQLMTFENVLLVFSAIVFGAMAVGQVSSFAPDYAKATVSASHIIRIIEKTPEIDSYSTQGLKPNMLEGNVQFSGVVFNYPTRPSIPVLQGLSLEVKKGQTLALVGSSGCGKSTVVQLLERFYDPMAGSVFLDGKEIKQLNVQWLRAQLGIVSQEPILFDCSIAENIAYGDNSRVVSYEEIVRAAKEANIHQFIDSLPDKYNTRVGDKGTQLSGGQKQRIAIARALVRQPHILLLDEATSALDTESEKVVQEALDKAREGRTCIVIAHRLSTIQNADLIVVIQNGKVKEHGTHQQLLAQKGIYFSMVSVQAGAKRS

As for `C[C@]12CC[C@H](O)C[C@H]1CC[C@@H]1[C@@H]2CC[C@]2(C)[C@@H](C3=CC(=O)OC3)CC[C@]12O` [Digitoxigenin, (3β,5β)-3,14-Dihydroxy-card-20(22)-enolide], the Km in data set [1] is 67.6 ± 19.8 µM. The “Intracellular accumulation in Pgp-overexpressing cells” value in the data set on Pgp was “no significant difference”.

In data set [2], `C[C@]12CC[C@H](O)C[C@H]1CC[C@@H]1[C@@H]2C[C@@H](O)[C@]2(C)[C@@H](C3=CC(=O)OC3)CC[C@]12O` [Digoxigenin, 3β,12β,14-Trihydroxy-5β,20(22)-cardenolide] came in with a Kd of 10.16 ± 0.01 µM.

For the molecule `C[C@H]1O[C@@H](O[C@H]2[C@@H](O)C[C@H](O[C@H]3[C@@H](O)C[C@H](O[C@H]4CC[C@@]5(C)[C@H](CC[C@@H]6[C@@H]5C[C@@H](O)[C@]5(C)[C@@H](C7=CC(=O)OC7)CC[C@]65O)C4)O[C@@H]3C)O[C@@H]2C)C[C@H](O)[C@@H]1O` [Digoxin], the “Decrease of digoxin-Pgp interaction for mutants compared to wild-type Pgp” value in data set [3] was “two- to four-fold”.
